Data as given in patent US20230174636A1, “COMPOSITIONS AND METHODS FOR TREATING CANCER” (RUSH UNIVERSITY MEDICAL CENTER, priority 2020, published 2023).
Where no end group is shown, it is not given here. [ ]: non-standard residue; d: D form.

Assays:
[1] = tested on: BT-549 cells; experiment: MTT assay (cell viability), BT-549; type: cell-based, human; conditions: BT-549, 48 h, serum-free, combined with mAb a3-3a
Description: (§1) MTT assay: Mitochondrial activity was measured with the 3-(4, 5-dimethylthiazol-2-yl)-2, 5-diphenyltetrazolium bromide (MTT) assay (Sigma) as described before. The cells were grown on 24-well culture plates with 500 μl of medium and treated with various reagents according to the experimental design. At the end of the treatment period, 300 μl of culture medium were removed from each well, and 20 μl of MTT solution (5 mg/ml) were added and incubated for 1 h.

[2] = tested on: TNBC tumor; experiment: Tumor size in PDX mouse model of TNBC; type: in vivo, mice; conditions: for shrinkage of TNBC tumor in mAb a3-3a-treated mice / tumor shrinkage in mAb a3-3a-treated TNBC mice: peptide 0.1 mg/kg daily intranasal plus a3-3a 2 mg/kg weekly i.p.; for shrinkage of TNBC tumor in mAb a3-3a-treated mice: 3 weeks; for tumor shrinkage in mAb a3-3a-treated TNBC mice: three weeks; for p40 mAb a3-3a-mediated reduction of TNBC tumor: peptide 0.1 mg/kg daily intranasal plus p40 mAb 2 mg/kg weekly, 2 weeks, infrared imaging
Description: Animals: Animal maintaining and experiments were in accordance with National Institute of Health guidelines and were approved by the Institutional Animal Care and Use committee of the Rush University of Medical Center, Chicago, Ill. Patient-derived xenograft (PDX) model (ID # TM00096) was purchased from Jackson Laboratory, Bar Harbor, Me., USA. In this model, TNBC tumor fragments at passage P1-P9 (invasive ductal carcinoma; TNBC ER^−PR^−HER2^−) were engrafted in the flank of female 6-8 week old NOD scid gamma (NSG) mice. Mice were shipped to us by Jackson Laboratory within ˜2 weeks following tumor engraftment. PDX mice were maintained in our temperature-controlled animal vivarium with adequate food and water.
Tumor measurement: Tumor growth was measured with a caliper and tumor cross-sectional area was determined with the formula (mm^2=longest diameter X shortest diameter). Treatment with p40 mAb started when the tumor sizes reached 0.6-0.8 cm^2 in area. The p40 mAb a3-3a was injected once a week intraperitoneally in 0.1 ml volume of sterile PBS-1% normal mouse serum. The tumors were then measured to determine progression or regression. Infrared dye (Alexa 800-conjugated 2DG dye; Licor) was injected via tail-vein on the day before imaging analysis. Mice were sacrificed at the end of the study and tumor tissues were collected for different biochemical analyses.

[3] = tested on: MCF-7 cells; experiment: MTT assay (cell viability), MCF-7; type: cell-based, human; conditions: MCF-7, 48 h, serum-free, combined with mAb a3-3a
Description: as §1

[4] = tested on: Hep3B (human liver cancer cells); experiment: MTT assay (cell viability), Hep3B; type: cell-based; conditions: 48 h, serum-free, combined with mAb a3-3a
Description: as §1

[5] = tested on: human IFNγ, human IL-10; experiment: IFNγ and IL-10 in tumor tissue extracts by sandwich ELISA; type: in vivo, mice; conditions: peptide 0.1 mg/kg daily intranasal plus p40 mAb, 2 weeks
Description: FIG. 23A-23B. Intranasal wtTIDM peptide stimulates the p40 mAb-mediated induction of IFNγ while reducing the level of IL-10 in TNBC tumor tissues of patient-derived xenograft (PDX) mice. Female 6-8 week old NOD scid gamma (NSG) mice were engrafted TNBC tumor fragments at passage P1-P9 (invasive ductal carcinoma; TNBC ER^−/−/PR^−/−/HER2^−/−) in the flank. After about 4 weeks of engraftment, when tumors of PDX mice were 0.6-0.8 cm^2 in size, mice were treated with p40 mAb and hamster IgG at a dose of 2 mg/kg body wt once a week. Mice were also treated with wild type (wt) and mutated (m) TLR2-interacting domain of MyD88 (TIDM) peptide at a dose of 0.1 mg/kg body wt daily via intranasal route. After 2 weeks of treatment, levels of human IFNγ (23A) and human IL-10 (23B) were measured in tumor tissue extracts by sandwich ELISA (Thermofisher). Results are mean±SEM of 6-7 mice per group. ***p<0.001.
(§2) Sandwich ELISA: Sandwich ELISA was used to quantify p402 and p40 as described by us. Briefly, for p402, mAb a3-1d (1.3 mg/mL) was diluted 1:3000 and added to each well (100 μL/well) of a 96-well ELISA plate for coating. The biotinylated p402 mAb d7-12c (2 mg/mL) was diluted 1:3000 and used as detection antibody. Similarly for p40, mAb a3-3a (1.3 mg/mL) and biotinylated p40 mAb a3-7g (2 mg/mL) were also diluted 1:3000 and used as coating and detection antibodies, respectively. Concentrations of IFN-γ, IL-12, IL-23, and IL-10 were measured in serum or tissue homogenates by ELISA (eBioscience/ThermoFisher), according to the manufacturer's instructions as described before.

[6] = tested on: IFNγ, IL-10; experiment: Serum IFNγ and IL-10 by sandwich ELISA in PDX mice; type: in vivo; conditions: peptide 0.1 mg/kg daily intranasal plus p40 mAb, 2 weeks
Description: as §2

[7] = tested on: TNBC tumor; experiment: H&E staining of tumor sections of PDX mice; type: in vivo; conditions: peptide 0.1 mg/kg daily intranasal plus p40 mAb 2 mg/kg weekly, 2 weeks
[8] = tested on: splenocytes; experiment: FACS of T cells in splenocytes of PDX mice; type: in vivo; conditions: intranasal peptide plus p40 mAb, 3 weeks
Description: Isolation of splenocytes: Spleens isolated from treated or untreated PDX mice were placed into a cell strainer and mashed with a syringe plunger. Resulting single-cell suspensions were treated with RBC lysis buffer (Sigma-Aldrich), washed, and cultured in RPMI 1640 supplemented with 10% FBS, 50 μM 2-ME, 2 mM L-glutamine, 100 U/ml penicillin, and 100 μg/ml streptomycin.
Flow cytometry: Single-cell suspensions isolated from mouse spleen or tumor were stained with Zombie Aqua™ Fixable Viability Kit (Biolegend) according to the manufacturer's instructions. Cells were washed with FACS buffer (ThermoFisher) and stained with FITC-anti-human CD4 antibody and APC/Cy7-anti-human CD8 antibody (Biolegend) for extracellular stains. For IFNγ staining, cells were stained with PE-anti-human IFNγ antibody (Biolegend) and detected by flow cytometry analysis. Only PE-treated and unstained cells served as control. Flow cytometric analyses were performed using the LSRFortessa analyzer (BD Biosciences) and analyzed using the FlowJo Software (v10) as described.

| Substance | death induced by p40 mAb a3-3a in presence of NBD peptide (MTT) [1] | shrinkage of TNBC tumor in mAb a3-3a-treated mice [2] | death induced by p40 mAb a3-3a in presence of NBD peptide (MTT) [3] | death induced by p40 mAb a3-3a in presence of NBD peptide (MTT) [4] | p40 mAb a3-3a-mediated induction of IFNγ in tumor tissues [5] | p40 mAb a3-3a-mediated reduction of IL-10 in tumor tissues [5] | death by combination of mAb a3-3a and TIDM peptide (MTT) [1] | tumor shrinkage in mAb a3-3a-treated TNBC mice [2] | p40 mAb a3-3a-mediated reduction of TNBC tumor [2] | death by combination of mAb a3-3a and TIDM peptide (MTT) [3] | death by combination of mAb a3-3a and TIDM peptide (MTT) [4] | p40 mAb a3-3a-mediated induction of IFNγ in serum [6] | p40 mAb a3-3a-mediated reduction of IL-10 in serum [6] | death of TNBC tumor in p40 mAb a3-3a-treated mice (H&E) [7] | Tc1 (CD8+IFNγ+) response in p40 mAb-treated TNBC mice [8] |
| --- | --- | --- | --- | --- | --- | --- | --- | --- | --- | --- | --- | --- | --- | --- | --- |
| mNBD: Mutated (m) NBD control peptide, drqikiwfqnrrmkwkkLDASAL (SEQ ID NO: 9) ([dD][dR][dQ][dI][dK][dI][dW][dF][dQ][dN][dR][dR][dM][dK][dW][dK][dK]LDASAL) [reference compound] | not seen | did not exhibit such effect | not seen | not seen |  |  |  |  |  |  |  |  |  |  |  |
| mTIDM: Mutated (m) TIDM control peptide, drqikiwfqnrmikwkkPGWHGD (SEQ ID NO.: 5) ([dD][dR][dQ][dI][dK][dI][dW][dF][dQ][dN][dR][dM][dI][dK][dW][dK][dK]PGWHGD) [reference compound] |  |  |  |  | not | not | not | not | remained unable to stimulate | not | not | not | not | not |  |
| TLR2-interacting domain of MyD88 (TIDM) peptide (DRQIKIWFQNRRMKWKKPGAHQK; not fully specified (some residues)) [wtTIDM] |  |  |  |  | stimulated | potentiated | markedly induced death | greater tumor shrinkage | significantly stimulated | markedly induced death | markedly induced death | stimulated | potentiated | stimulated the death | markedly stimulated |
| NEMO-binding domain (NBD) peptide [wtNBD] | greater death | greater shrinkage | greater death | greater death |  |  |  |  |  |  |  |  |  |  | markedly stimulated |
